Assay results as given in ChEMBL document CHEMBL5038588 (J Med Chem, 2021).

What was measured:
[1] = Half life in ICR mouse at 15 mg/kg, po measured upto 24 hrs by LC/MS/MS analysis; type: ADME, organism-based; conditions: in vivo
[2] = AUC (0 to t) in ICR mouse at 15 mg/kg, po measured upto 24 hrs by LC/MS/MS analysis; type: ADME, organism-based; set-up: route oral, dose 15 mg/kg, time <=24; conditions: in vivo
[3] = target: Tyrosine-protein kinase Lyn (Homo sapiens, UniProt P07948); test: Inhibition of human LYN using poly [Glu:Tyr] as substrate incubated for 30 mins followed by 33P-ATP addition and measured after 2 hrs by liquid scintillation counter method
Tyrosine-protein kinase Lyn, sequence (P07948 whole entry): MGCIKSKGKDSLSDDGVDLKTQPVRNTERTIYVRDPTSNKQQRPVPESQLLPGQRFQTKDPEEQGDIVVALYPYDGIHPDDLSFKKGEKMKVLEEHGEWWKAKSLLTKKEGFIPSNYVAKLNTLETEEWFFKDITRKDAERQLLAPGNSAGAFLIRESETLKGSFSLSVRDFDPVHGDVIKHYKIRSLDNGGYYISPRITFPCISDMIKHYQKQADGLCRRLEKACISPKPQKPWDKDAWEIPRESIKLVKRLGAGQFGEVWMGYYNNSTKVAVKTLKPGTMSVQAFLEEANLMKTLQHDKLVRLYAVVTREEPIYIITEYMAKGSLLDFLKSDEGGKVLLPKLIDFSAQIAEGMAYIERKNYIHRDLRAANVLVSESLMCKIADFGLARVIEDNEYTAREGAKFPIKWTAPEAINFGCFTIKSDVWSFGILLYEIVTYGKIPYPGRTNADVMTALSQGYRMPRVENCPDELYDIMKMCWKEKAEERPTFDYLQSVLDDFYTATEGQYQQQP

[4] = AUC (0 to infinity) in ICR mouse at 15 mg/kg, po measured upto 24 hrs by LC/MS/MS analysis; type: ADME, organism-based; set-up: route oral, dose 15 mg/kg, time <=24; conditions: in vivo
[5] = target: Platelet-derived growth factor receptor alpha (Homo sapiens, UniProt P16234); test: Inhibition of human PDGFRa using poly [Glu:Tyr] as substrate incubated for 30 mins followed by 33P-ATP addition and measured after 2 hrs by liquid scintillation counter method
Platelet-derived growth factor receptor alpha, sequence (P16234 whole entry): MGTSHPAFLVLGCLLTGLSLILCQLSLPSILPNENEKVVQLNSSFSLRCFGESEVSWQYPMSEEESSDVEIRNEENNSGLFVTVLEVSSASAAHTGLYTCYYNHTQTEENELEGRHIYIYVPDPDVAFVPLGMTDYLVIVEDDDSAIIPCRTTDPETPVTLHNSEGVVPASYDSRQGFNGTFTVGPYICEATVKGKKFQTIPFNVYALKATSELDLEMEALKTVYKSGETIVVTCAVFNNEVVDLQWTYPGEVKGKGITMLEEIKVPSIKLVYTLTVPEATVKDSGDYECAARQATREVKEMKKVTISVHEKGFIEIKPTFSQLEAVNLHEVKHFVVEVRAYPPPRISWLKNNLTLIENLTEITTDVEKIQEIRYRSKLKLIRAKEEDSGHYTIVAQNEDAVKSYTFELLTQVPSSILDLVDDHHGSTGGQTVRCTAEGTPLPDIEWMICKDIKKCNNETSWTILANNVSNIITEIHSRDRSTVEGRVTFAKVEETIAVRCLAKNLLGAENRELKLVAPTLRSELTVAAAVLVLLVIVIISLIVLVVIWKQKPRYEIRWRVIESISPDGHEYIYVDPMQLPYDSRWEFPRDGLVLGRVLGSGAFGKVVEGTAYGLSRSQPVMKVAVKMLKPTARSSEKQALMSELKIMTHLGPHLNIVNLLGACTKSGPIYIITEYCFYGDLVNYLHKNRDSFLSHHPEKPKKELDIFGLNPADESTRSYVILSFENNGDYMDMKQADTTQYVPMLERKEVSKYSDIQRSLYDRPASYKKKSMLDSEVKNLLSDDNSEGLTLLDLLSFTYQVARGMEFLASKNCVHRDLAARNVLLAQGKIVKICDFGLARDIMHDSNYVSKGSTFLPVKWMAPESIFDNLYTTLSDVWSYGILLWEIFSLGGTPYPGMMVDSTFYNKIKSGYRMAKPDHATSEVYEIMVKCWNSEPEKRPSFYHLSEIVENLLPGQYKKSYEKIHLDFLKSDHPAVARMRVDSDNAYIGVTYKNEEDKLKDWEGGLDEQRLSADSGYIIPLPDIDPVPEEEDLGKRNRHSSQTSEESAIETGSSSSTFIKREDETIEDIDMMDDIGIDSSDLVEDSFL

[6] = MRT in ICR mouse at 5 mg/kg, iv measured upto 24 hrs by LC/MS/MS analysis; type: ADME, organism-based; conditions: in vivo
[7] = MRT in ICR mouse at 15 mg/kg, po measured upto 24 hrs by LC/MS/MS analysis; type: ADME, organism-based; conditions: in vivo
[8] = tested on: Salmonella typhimurium; test: Mutagenecity in Salmonella typhimurium TA1535 at 0.5 to 312.5 ug/ml incubated for 42 to 72 hrs in presence of S9 fraction by Ames test; type: toxicity, organism-based; conditions: salmonella enterica subsp. enterica serovar typhimurium, dose lower 0.5 µg/ml, time lower 42 hrs, dose upper 312.5 µg/ml, time upper 72 hrs
[9] = tested on: Salmonella typhimurium; test: Mutagenecity in Salmonella typhimurium TA98 at 0.5 to 312.5 ug/ml incubated for 42 to 72 hrs in presence of S9 fraction by Ames test; type: toxicity, organism-based; conditions: salmonella enterica subsp. enterica serovar typhimurium, dose lower 0.5 µg/ml, time lower 42 hrs, dose upper 312.5 µg/ml, time upper 72 hrs
[10] = Cmax in ICR mouse at 15 mg/kg, po measured upto 24 hrs by LC/MS/MS analysis; type: ADME, organism-based; set-up: route oral, dose 15 mg/kg, time <=24; conditions: in vivo
[11] = Cmax in ICR mouse at 5 mg/kg, iv measured upto 24 hrs by LC/MS/MS analysis; type: ADME, organism-based; set-up: route intravenous, dose 5 mg/kg, time <=24; conditions: in vivo
[12] = Genotoxicity in ICR mouse bone marrow at 25 to 100 mg/kg administered via oral gavage and measured after 24 to 48 hrs by micronucleus assay; type: toxicity, organism-based; conditions: in vivo, dose lower 25 mg/kg, time lower 24 hrs, dose upper 100 mg/kg, time upper 48 hrs
[13] = tested on: Salmonella typhimurium; test: Mutagenecity in Salmonella typhimurium TA100 at 0.5 to 312.5 ug/ml incubated for 42 to 72 hrs in presence of S9 fraction by Ames test; type: toxicity, organism-based; conditions: salmonella enterica subsp. enterica serovar typhimurium, dose lower 0.5 µg/ml, time lower 42 hrs, dose upper 312.5 µg/ml, time upper 72 hrs
[14] = AUC (0 to t) in ICR mouse at 5 mg/kg, iv measured upto 24 hrs by LC/MS/MS analysis; type: ADME, organism-based; set-up: route intravenous, dose 5 mg/kg, time <=24; conditions: in vivo
[15] = target: Vascular endothelial growth factor receptor 2 (Homo sapiens, UniProt P35968); test: Inhibition of human KDR/VEGFR2 using poly [Glu:Tyr] as substrate incubated for 30 mins followed by 33P-ATP addition and measured after 2 hrs by liquid scintillation counter method
Vascular endothelial growth factor receptor 2, sequence (P35968 whole entry): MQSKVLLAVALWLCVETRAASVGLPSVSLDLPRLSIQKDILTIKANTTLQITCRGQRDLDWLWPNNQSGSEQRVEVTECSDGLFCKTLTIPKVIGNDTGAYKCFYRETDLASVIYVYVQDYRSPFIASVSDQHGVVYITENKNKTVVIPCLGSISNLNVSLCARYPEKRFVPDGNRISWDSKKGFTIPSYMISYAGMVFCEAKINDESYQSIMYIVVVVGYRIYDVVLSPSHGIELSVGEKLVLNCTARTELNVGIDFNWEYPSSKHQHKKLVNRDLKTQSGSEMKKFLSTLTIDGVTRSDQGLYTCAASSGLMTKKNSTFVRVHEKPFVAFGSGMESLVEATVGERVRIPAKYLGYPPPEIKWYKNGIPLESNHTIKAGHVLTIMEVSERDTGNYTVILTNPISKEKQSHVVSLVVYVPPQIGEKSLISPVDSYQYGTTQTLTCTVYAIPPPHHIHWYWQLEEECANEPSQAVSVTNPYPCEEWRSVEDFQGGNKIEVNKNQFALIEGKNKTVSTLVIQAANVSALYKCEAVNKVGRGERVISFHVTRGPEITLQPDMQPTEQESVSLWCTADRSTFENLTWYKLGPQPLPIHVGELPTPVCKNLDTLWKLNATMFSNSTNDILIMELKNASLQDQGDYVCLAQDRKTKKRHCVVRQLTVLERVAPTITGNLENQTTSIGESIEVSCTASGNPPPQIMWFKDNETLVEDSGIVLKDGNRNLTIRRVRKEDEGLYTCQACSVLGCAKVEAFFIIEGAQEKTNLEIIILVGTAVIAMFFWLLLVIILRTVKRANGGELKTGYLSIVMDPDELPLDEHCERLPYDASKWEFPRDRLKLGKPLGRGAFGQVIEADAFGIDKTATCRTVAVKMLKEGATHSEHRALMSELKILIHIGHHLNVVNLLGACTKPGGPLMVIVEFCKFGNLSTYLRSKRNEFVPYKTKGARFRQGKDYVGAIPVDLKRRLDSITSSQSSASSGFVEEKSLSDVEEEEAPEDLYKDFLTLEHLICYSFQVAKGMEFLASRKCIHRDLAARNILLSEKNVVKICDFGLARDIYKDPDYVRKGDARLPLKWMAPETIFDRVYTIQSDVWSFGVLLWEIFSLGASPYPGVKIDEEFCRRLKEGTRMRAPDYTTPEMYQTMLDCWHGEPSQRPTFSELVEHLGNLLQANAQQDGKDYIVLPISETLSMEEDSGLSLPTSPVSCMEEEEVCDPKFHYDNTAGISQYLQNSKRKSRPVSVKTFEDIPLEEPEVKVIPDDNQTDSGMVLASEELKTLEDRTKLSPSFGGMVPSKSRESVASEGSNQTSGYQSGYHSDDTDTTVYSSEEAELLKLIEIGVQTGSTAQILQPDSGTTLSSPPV

[16] = Toxicity in ICR mouse assessed as maximum tolerated dose administered as single oral dose for 14 days; conditions: in vivo, time 14 day
[17] = target: Voltage-gated inwardly rectifying potassium channel KCNH2 (Homo sapiens, UniProt Q12809); test: Inhibition of hERG; type: toxicity
Voltage-gated inwardly rectifying potassium channel KCNH2, sequence (Q12809 whole entry): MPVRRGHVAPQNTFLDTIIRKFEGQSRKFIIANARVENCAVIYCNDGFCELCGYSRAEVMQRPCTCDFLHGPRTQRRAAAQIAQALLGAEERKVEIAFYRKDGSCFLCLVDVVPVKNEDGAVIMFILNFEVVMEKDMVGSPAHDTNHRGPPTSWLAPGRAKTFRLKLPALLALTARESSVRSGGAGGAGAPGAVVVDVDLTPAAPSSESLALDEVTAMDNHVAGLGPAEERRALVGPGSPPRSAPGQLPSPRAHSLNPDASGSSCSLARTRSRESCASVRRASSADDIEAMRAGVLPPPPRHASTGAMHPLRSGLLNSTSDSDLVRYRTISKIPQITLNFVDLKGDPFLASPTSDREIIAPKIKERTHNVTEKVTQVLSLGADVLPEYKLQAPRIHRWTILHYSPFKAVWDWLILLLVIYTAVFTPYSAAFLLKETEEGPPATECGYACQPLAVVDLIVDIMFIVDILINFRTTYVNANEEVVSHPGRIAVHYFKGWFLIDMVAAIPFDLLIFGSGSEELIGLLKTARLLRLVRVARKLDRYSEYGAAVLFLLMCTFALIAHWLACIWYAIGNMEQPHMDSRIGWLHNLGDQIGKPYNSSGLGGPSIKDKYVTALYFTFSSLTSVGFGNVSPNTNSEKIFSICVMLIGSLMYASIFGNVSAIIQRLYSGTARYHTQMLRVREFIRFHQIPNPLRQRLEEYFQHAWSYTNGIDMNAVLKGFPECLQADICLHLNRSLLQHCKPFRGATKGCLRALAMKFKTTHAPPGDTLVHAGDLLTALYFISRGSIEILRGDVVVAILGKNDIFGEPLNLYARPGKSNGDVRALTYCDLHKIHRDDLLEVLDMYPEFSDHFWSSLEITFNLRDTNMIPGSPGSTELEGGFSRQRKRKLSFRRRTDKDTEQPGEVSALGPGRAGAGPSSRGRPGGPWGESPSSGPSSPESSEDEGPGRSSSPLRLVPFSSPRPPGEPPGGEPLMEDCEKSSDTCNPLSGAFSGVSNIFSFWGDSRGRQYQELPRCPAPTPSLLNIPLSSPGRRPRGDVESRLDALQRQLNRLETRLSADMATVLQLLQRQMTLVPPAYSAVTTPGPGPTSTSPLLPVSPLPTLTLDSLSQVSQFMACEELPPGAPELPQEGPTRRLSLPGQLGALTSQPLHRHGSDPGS

[18] = Tmax in ICR mouse at 5 mg/kg, iv measured upto 24 hrs by LC/MS/MS analysis; type: ADME, organism-based; conditions: in vivo
[19] = Half life in ICR mouse at 5 mg/kg, iv measured upto 24 hrs by LC/MS/MS analysis; type: ADME, organism-based; conditions: in vivo
[20] = Clearance in ICR mouse at 5 mg/kg, iv measured upto 24 hrs by LC/MS/MS analysis; type: ADME, organism-based; conditions: in vivo
[21] = Tmax in ICR mouse at 15 mg/kg, po measured upto 24 hrs by LC/MS/MS analysis; type: ADME, organism-based; conditions: in vivo
[22] = AUC (0 to infinity) in ICR mouse at 5 mg/kg, iv measured upto 24 hrs by LC/MS/MS analysis; type: ADME, organism-based; set-up: route intravenous, dose 5 mg/kg, time <=24; conditions: in vivo
[23] = Oral bioavailability in ICR mouse at 15 mg/kg measured upto 24 hrs by LC/MS/MS analysis; type: ADME, organism-based; conditions: in vivo
[24] = tested on: Salmonella typhimurium; test: Mutagenecity in Salmonella typhimurium TA97a at 0.5 to 312.5 ug/ml incubated for 42 to 72 hrs in presence of S9 fraction by Ames test; type: toxicity, organism-based; conditions: salmonella enterica subsp. enterica serovar typhimurium, dose lower 0.5 µg/ml, time lower 42 hrs, dose upper 312.5 µg/ml, time upper 72 hrs
[25] = tested on: Salmonella typhimurium; test: Mutagenecity in Salmonella typhimurium TA102 at 0.5 to 312.5 ug/ml incubated for 42 to 72 hrs in presence of S9 fraction by Ames test; type: toxicity, organism-based; conditions: salmonella enterica subsp. enterica serovar typhimurium, dose lower 0.5 µg/ml, time lower 42 hrs, dose upper 312.5 µg/ml, time upper 72 hrs
[26] = target: T1, Receptor-type tyrosine-protein kinase FLT3 (Homo sapiens, UniProt P36888); test: Inhibition of human FLT3 using EAIYAAPFAKKK as substrate incubated for 30 mins followed by 33P-ATP addition and measured after 2 hrs by liquid scintillation counter method
T1 sequence (P36888 whole entry): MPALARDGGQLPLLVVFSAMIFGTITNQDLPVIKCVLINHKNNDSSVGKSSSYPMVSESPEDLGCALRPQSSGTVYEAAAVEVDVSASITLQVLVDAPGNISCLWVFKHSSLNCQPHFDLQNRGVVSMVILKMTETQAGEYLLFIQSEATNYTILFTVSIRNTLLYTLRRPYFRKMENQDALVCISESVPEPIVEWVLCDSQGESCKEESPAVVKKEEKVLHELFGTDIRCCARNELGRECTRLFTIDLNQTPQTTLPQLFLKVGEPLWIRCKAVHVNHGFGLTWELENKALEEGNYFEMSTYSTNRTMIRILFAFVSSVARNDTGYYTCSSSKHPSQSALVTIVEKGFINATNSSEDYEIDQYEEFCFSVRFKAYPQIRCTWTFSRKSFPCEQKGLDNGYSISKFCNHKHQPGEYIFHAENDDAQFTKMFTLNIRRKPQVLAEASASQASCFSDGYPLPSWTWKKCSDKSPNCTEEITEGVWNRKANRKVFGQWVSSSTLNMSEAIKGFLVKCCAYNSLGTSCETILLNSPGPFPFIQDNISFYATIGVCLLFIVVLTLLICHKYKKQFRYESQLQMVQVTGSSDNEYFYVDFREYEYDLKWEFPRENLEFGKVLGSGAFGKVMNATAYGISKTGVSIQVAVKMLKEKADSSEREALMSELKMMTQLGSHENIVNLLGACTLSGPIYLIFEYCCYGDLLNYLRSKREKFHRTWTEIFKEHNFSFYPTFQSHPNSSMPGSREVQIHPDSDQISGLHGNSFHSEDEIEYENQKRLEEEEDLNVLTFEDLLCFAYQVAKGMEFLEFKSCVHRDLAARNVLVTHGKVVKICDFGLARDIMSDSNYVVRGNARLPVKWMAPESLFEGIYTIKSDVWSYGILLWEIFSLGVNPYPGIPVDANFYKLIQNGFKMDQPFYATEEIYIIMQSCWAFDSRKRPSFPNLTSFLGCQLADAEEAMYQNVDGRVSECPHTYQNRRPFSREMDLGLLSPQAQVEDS

[27] = target: Proto-oncogene tyrosine-protein kinase Src (Homo sapiens, UniProt P12931); test: Inhibition of human c-SRC using poly [Glu:Tyr] as substrate incubated for 30 mins followed by 33P-ATP addition and measured after 2 hrs by liquid scintillation counter method
Proto-oncogene tyrosine-protein kinase Src, sequence (P12931 2-536 limits assumed): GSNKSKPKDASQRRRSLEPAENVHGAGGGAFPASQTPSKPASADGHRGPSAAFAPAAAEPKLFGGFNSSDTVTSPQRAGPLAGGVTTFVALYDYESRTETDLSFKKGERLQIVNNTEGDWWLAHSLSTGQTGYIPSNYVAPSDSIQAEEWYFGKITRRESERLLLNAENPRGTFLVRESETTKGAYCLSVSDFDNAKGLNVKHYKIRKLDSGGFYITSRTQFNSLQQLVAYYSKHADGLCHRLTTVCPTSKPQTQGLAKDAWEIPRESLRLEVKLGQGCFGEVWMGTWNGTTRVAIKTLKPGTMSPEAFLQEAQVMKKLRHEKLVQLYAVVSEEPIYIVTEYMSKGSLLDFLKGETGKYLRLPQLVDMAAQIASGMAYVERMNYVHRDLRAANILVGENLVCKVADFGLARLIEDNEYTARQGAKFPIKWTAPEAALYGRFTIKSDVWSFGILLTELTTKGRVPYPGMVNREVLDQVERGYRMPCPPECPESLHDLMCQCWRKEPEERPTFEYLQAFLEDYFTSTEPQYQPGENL

[28] = Volume of distribution at steady state in ICR mouse at 5 mg/kg, iv measured upto 24 hrs by LC/MS/MS analysis; type: ADME, organism-based; conditions: in vivo, read-out: Vdss
[29] = tested on: BaF3; test: Inhibition of cell proliferation in mouse BaF3 cells expressing BCR-ABL T315I mutant assessed as cell viability at 100 uM measured after 48 hrs by trypan blue based assay (RVB=100%); type: functional; conditions: read-out: Activity
[30] = tested on: U-937; test: Cytotoxicity against human U-937 cells assessed as inhibition of cell growth measured after 72 hrs by MTT assay; type: functional, cell-based; conditions: U-937, 72 h
[31] = tested on: BaF3; test: cells; conditions: Mus musculus, BaF3, 72 h
[32] = tested on: KU812 cell line; test: Cytotoxicity against human KU812 cells assessed as inhibition of cell growth measured after 72 hrs by MTT assay; type: functional, cell-based; conditions: KU812, 72 h
[33] = tested on: Jurkat; test: Cytotoxicity against human Jurkat cells assessed as inhibition of cell growth measured after 72 hrs by MTT assay; type: functional, cell-based
[34] = tested on: K562; test: cells; conditions: Homo sapiens, K562, 72 h
[35] = tested on: BaF3; test: cells; conditions: Mus musculus, BaF3, 48 h
[36] = tested on: BaF3; test: animal or person; conditions: Mus musculus, BaF3, po, 360 h, read-out: TGI
[37] = tested on: K562; conditions: Homo sapiens

SMILES	half-life [1] [h]	AUC(0-t) at 24 h [2] [ng·h/mL]	AUC(0-inf) [4] [ng·h/mL]	MRT [6] [h]	MRT [7] [h]	Cmax [10] [ng/mL]	Cmax [11] [ng/mL]	AUC(0-t) at 24 h [14] [ng·h/mL]	Tmax [18] [min]	half-life [19] [h]	clearance [20] [mL/min/kg]	Tmax [21] [h]	AUC(0-inf) [22] [ng·h/mL]	bioavailability [23] [%]	Vd [28] [L/kg]	viability at 100 µM [29] [%]	IC50 [30] [nM]	IC50 [31] [nM]	IC50 [32] [nM]	IC50 [33] [nM]	other results
Cc1ccc(C(=O)Nc2ccc3c(c2)C(F)(F)C[C@@H]3N2CCN(C)CC2)cc1C#Cc1cnc2cccnn12	4.61	1390	1440	5.11	8.22	129	1470	1390	4.8	5.3	62	5	1500	32	18.1						IC50 [3]: < 10 nM; IC50 [5]: < 10 nM; Activity [8]: Non-Toxic; Activity [9]: Non-Toxic; Activity [12]: Non-Toxic; Activity [13]: Non-Toxic; IC50 [15]: < 10 nM; MTD at 336 h [16]: 100 mg/kg; IC50 [17]: 11100 nM; Activity [24]: Non-Toxic; Activity [25]: Non-Toxic; IC50 [26]: < 10 nM; IC50 [27]: < 10 nM
CN1CCN(Cc2ccc(NC(=O)N3CCC(C#Cc4cnc5cccnn45)C3)cc2C(F)(F)F)CC1 (centres undefined)																91.9					
Cc1ccc(-c2nc3ccc(CN4CCN(C)CC4)cc3[nH]2)cc1C#Cc1cnc2cccnn12																84.5					
Cc1ccc(NC(=O)c2ccc(CN3CCN(C)CC3)cc2)cc1Nc1nccc(-c2cccnc2)n1 [IMATINIB]																	> 1000	> 100	51.3	> 1000	IC50 [34]: 82.9 nM; IC50 [35]: > 100 nM
Cc1cn(-c2cc(NC(=O)c3ccc(C)c(Nc4nccc(-c5cccnc5)n4)c3)cc(C(F)(F)F)c2)cn1 [NILOTINIB]																	> 1000	11.8	1.8	> 1000	IC50 [34]: 1.8 nM; IC50 [35]: > 100 nM
Cc1ccc(C(=O)Nc2ccc(CN3CCN(C)CC3)c(C(F)(F)F)c2)cc1C#Cc1cnc2cccnn12 [PONATINIB]	2.84	363	432	4.29	5.25	70	270	497	4.8	3.28	161	1.5	528	27	41	2.8	246	0.9	0.1	295	inhibition in vivo at 5 mg/kg [36]: 53%; IC50 [37]: 10 nM
